The values that follow are results of earlier work, collected in patent US12178851B2, “Methods for administering STING agonists” (GlaxoSmithKline Intellectual Property Development Limited, priority 2017, dated 2024).

The subject of series [1] is CT26 syngeneic model. The note with it: 20 daily i.v. doses of 20 mg/kg, dosed 4 h after injection of the tumor cells.
The test system of series [2] is CT26 syngeneic model.

In the case of `Nc1nc2c(ncn2[C@@H]2O[C@@H]3COP(=O)(O)O[C@H]4[C@@H](O)[C@H](n5cnc6c(N)ncnc65)O[C@@H]4COP(=O)(O)O[C@@H]2[C@@H]3O)c(=O)[nH]1` [2′3′-cGAMP], the “efficacy in CT26 model” value in the series on CT26 syngeneic model [1] was “some efficacy”.
`Cc1ccc2c(=O)c3cccc(CC(=O)O)c3oc2c1C` [DMXAA, 5,6-Dimethylxanthenone-4-Acetic Acid]: the “maximally tolerated i.p. dose” value in the series with CT26 syngeneic model [2] (mouse, in vivo, ip) is approximately 99 µmol/kg. The “cytokine levels in tumor and blood” value in the series on CT26 syngeneic model [2] (once at 500 ug/mouse i.p.) was “high cytokine levels both in the tumor and the blood”. For the same molecule, in the series with CT26 syngeneic model [2] (once at 500 ug/mouse i.p., established tumors), the tumor growth inhibition entry is listed as “potently inhibits tumor growth, leading to cures in mice”.
